{"source": "patent US6828441B2", "about": "(priority 1998, dated 2004)", "data": [{"units": {"melting point": "°C"}, "values": [{"smiles": "CCOC(=O)C(NC(=O)c1ccc(OC)c(OC)c1)c1ncc(CF)cc1Cl", "note": "(centres unmarked)", "melting point": "40 to 43"}, {"smiles": "O=C(NC(Cc1ccccc1)c1ncc(C(F)(F)F)cc1Cl)c1c(Cl)cccc1Cl", "note": "(centres unmarked)", "melting point": "164 to 168"}, {"smiles": "O=C(NCc1ncc(Cl)cc1Cl)c1c(Cl)cccc1Cl", "note": "[Compound 59, N-[(3,5-dichloro-2-pyridyl)methyl]-2,6-dichlorobenzamide]", "melting point": "161 to 165"}, {"smiles": "CN(Cc1ncc(C(F)(F)F)cc1Cl)C(=O)c1c(Cl)cccc1Cl", "note": "[Compound 63, N-[(3-Chloro-5-trifluoromethyl-2-pyridyl)methyl]-N-methyl-2,6-dichlorobenzamide]", "melting point": "83 to 84"}, {"smiles": "FC(F)(F)c1cnc(CNC(=S)c2ccccc2Cl)c(Cl)c1", "note": "[Compound 701, N-[(3-Chloro-5-trifluoromethyl-2-pyridyl)methyl]-2-chlorobenzenethioamide]", "melting point": "102 to 105"}]}]}
